The record followed here is US20130267551A1, “SUBSTITUTED HYDROGENATED THIENO-PYRROLO[3,2-C]PYRIDINE, LIGANDS, A PHARMACEUTICAL COMPOSITION AND A METHOD FOR USING THE ABOVE” (ALLA CHEM, LLC, priority 2010, published 2013).

One assay has as its system Adrenergic α1A. The assay can be described thus: competitive radioligand binding, Adrenergic α1A. The note with it: compound concentration of 1 μM. How it is done:
(§1) Profiles of pharmacological activity of thieno-pyrrolo[3,2-c]pyridines of the general formula 1. Biological activity test of compounds of the general formula 1 was carried out in the setting of competitive radioligand binding [I. Okun, S. Tkachenko, A. Khvat, et al., Current Alzheimer Research, 7(2), 97-112 (2010)], using a wide range of therapeutic targets including G-protein coupled receptors (GPCR), ion channels and neuromediator transporters. The tested activity was determined by quantitative measurement of radio-labelled ligand displacement by tested compounds of the general formula 1 at their concentration of 1 μM.

The target of another assay is T1, Serotoninergic 5-HT2C (Homo sapiens, UniProt P28335).
T1 sequence (P28335 33-458): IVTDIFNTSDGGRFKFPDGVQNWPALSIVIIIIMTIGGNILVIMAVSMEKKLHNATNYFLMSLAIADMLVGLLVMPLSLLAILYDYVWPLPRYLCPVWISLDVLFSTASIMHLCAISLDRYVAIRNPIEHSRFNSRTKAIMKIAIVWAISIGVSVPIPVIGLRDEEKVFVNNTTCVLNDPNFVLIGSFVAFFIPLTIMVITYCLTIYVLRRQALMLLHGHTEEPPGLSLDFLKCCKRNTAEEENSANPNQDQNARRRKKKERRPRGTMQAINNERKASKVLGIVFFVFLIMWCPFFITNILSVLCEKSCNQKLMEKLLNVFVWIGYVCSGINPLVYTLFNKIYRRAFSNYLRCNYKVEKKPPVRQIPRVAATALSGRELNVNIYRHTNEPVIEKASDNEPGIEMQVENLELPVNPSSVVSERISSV
The assay can be described thus: competitive radioligand binding, Serotoninergic 5-HT2C. To be noted: read-out: radio-labelled ligand displacement, Serotoninergic 5-HT2C. How it is done: as §1

Another assay concerns the target Dopaminergic D1 (Homo sapiens, UniProt P21728). The assay is described as follows: competitive radioligand binding, Dopaminergic D1. To be noted: compound concentration of 1 μM; read-out: radio-labelled ligand displacement, Dopaminergic D1. The protocol: as §1
In another assay the target is T2, Adrenergic α2A (Homo sapiens, UniProt P08913).
T2 sequence (P08913 1-465): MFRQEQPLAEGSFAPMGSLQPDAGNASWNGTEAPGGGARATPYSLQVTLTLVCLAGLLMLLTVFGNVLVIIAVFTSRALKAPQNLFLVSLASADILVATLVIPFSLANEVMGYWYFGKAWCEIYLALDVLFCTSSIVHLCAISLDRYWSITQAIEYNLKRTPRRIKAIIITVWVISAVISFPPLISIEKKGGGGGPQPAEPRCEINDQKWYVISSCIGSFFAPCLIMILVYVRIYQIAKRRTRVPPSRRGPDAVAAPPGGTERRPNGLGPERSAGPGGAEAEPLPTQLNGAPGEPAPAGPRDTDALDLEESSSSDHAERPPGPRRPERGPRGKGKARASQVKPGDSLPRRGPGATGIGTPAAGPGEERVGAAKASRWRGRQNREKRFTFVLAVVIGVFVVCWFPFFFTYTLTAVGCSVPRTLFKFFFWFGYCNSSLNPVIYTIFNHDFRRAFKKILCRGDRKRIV
The assay can be described thus: competitive radioligand binding, Adrenergic α2A. To be noted: read-out: radio-labelled ligand displacement, Adrenergic α2A. How it is done: as §1

For the next assay, the target named is Serotoninergic 5-HT2A (Homo sapiens, UniProt P28223). The assay can be described thus: competitive radioligand binding, Serotoninergic 5-HT2A. To be noted: read-out: radio-labelled ligand displacement, Serotoninergic 5-HT2A. How it is done:
as §1

In a further assay the target is Dopaminergic D2L (Homo sapiens, UniProt P14416). The assay is described as follows: competitive radioligand binding, Dopaminergic D2L. To be noted: compound concentration of 1 μM; read-out: radio-labelled ligand displacement, Dopaminergic D2L. The protocol:
as §1

The target of a further assay is T3, Adrenergic α1D (Homo sapiens, UniProt P25100).
T3 sequence (P25100 1-572): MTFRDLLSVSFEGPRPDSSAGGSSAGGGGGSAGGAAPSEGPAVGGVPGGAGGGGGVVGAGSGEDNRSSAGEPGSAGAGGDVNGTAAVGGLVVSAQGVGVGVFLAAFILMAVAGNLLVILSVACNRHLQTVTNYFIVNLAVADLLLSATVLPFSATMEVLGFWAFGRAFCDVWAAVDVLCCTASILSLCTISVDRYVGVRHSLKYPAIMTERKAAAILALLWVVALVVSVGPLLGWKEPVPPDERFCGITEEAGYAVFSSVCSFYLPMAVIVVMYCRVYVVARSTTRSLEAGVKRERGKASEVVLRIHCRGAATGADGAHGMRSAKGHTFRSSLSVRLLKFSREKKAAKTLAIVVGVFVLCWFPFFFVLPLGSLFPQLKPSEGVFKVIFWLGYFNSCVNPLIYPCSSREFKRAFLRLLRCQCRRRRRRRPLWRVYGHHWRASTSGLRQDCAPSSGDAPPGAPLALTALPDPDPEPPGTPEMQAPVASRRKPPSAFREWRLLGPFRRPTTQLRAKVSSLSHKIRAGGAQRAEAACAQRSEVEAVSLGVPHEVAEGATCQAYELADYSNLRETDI
The assay is described as follows: competitive radioligand binding, Adrenergic α1D. The note with it: compound concentration of 1 μM; read-out: radio-labelled ligand displacement, Adrenergic α1D. The protocol:
as §1

The target of the next assay is T4, Dopaminergic D4.2 (Homo sapiens, UniProt P21917, DEL265-296).
T4 sequence (P21917 with tags, fused parts or gaps DEL265-296): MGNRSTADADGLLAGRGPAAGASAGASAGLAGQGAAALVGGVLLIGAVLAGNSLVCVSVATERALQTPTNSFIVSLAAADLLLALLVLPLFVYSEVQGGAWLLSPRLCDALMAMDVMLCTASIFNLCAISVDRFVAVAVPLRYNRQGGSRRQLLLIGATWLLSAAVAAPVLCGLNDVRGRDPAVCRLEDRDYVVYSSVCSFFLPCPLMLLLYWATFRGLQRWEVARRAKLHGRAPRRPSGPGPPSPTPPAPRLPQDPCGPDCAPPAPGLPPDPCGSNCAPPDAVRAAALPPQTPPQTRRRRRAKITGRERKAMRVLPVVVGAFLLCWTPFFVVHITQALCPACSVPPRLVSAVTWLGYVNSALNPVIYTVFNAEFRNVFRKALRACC
The assay can be described thus: competitive radioligand binding, Dopaminergic D4.2. The note with it: compound concentration of 1 μM; read-out: radio-labelled ligand displacement, Dopaminergic D4.2. How it is done: as §1

A further assay deals with Dopaminergic D3 (Homo sapiens, UniProt P35462). The assay can be described thus: competitive radioligand binding, Dopaminergic D3. The note with it: compound concentration of 1 μM; read-out: radio-labelled ligand displacement, Dopaminergic D3. The protocol: as §1
A further assay concerns Serotoninergic 5-HT1B. The assay is described as follows: competitive radioligand binding, Serotoninergic 5-HT1B. The note with it: compound concentration of 1 μM. The protocol: as §1
In a further assay the target is Histaminergic H3 (Homo sapiens, UniProt Q9Y5N1). The assay can be described thus: competitive radioligand binding, Histaminergic H3. The note with it: compound concentration of 1 μM; read-out: radio-labelled ligand displacement, Histaminergic H3. The protocol: as §1

Molecules are shown by their SMILES. Where a name gives a salt, the structure may show the parent alone. Read-outs that look alike come from different tables or passages of the source.

Sequence of Dopaminergic D2L (P14416 whole entry): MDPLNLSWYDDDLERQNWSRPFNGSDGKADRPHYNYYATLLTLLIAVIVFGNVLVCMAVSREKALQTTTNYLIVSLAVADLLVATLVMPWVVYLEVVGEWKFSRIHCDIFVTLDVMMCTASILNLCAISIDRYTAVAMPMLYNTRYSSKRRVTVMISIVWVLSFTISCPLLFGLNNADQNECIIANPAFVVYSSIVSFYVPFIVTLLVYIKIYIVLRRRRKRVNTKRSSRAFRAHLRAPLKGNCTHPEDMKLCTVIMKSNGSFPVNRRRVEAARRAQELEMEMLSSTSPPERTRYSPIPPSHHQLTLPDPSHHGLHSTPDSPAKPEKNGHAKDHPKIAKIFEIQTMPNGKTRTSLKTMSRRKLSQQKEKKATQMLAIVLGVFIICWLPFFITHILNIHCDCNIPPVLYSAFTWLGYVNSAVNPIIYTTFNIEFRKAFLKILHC
Sequence of Serotoninergic 5-HT2A (P28223 whole entry): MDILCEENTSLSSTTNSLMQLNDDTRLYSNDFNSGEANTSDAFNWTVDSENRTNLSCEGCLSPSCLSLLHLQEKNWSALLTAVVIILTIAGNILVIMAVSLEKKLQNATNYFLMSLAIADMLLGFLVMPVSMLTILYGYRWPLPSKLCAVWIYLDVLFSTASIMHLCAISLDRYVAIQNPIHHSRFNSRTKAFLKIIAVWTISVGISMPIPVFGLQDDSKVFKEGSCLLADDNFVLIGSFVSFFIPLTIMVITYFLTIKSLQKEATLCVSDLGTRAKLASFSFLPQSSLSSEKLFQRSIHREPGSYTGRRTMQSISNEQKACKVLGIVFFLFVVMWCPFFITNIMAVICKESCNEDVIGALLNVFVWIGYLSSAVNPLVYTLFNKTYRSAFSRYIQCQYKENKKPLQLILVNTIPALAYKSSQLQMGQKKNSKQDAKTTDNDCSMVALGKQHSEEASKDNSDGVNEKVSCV
Sequence of Histaminergic H3 (Q9Y5N1 whole entry): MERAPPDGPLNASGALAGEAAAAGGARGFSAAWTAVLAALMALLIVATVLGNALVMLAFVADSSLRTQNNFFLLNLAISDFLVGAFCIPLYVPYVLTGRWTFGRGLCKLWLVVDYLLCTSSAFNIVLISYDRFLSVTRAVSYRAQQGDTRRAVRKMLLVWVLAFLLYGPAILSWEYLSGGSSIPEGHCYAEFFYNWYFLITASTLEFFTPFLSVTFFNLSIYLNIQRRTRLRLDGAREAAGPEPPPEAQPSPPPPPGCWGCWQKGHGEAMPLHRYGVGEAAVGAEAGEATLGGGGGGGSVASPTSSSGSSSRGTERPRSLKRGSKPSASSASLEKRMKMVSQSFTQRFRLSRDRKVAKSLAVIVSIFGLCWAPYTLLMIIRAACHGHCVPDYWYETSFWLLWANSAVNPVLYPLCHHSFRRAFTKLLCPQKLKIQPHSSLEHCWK
Sequence of Dopaminergic D3 (P35462 whole entry): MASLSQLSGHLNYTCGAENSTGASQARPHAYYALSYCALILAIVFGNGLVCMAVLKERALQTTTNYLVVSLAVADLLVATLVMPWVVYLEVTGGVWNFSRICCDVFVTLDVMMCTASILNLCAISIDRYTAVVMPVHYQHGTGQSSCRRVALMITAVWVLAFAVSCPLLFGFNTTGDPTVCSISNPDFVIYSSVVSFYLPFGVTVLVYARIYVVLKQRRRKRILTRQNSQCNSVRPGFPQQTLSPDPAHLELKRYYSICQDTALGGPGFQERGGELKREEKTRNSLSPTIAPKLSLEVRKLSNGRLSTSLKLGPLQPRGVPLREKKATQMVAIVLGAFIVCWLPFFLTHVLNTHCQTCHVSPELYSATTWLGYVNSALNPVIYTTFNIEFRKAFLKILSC
Sequence of Dopaminergic D1 (P21728 whole entry): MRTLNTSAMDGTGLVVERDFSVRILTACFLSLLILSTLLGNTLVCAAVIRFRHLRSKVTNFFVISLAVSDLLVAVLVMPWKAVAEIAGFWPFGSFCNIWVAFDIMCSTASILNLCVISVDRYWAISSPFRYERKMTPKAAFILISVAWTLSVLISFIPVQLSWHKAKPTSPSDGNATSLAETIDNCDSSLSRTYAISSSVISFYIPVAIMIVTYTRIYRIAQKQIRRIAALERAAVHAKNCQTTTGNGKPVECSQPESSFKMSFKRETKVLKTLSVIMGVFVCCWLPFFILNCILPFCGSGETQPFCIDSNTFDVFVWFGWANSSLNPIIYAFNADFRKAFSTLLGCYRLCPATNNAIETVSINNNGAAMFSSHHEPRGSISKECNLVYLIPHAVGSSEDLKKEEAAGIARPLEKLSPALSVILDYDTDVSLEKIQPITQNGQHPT

Molecule `Cc1cc2c(s1)c1c(n2-c2cccc(F)c2)CCN(C)C1` [2.4(3)•HCl, 2,7-dimethyl-4-(3-fluorophenyl)-5,6,7,8-tetrahydro-4H-thieno[2′,3′:4,5]pyrrolo[3,2-c]pyridine] showed a radio-labelled ligand displacement, Adrenergic α1A in the assay on Adrenergic α1A of 17%. For the same molecule, the inhibition at 1 µM worked out at 33% at Serotoninergic 5-HT2C (compound concentration of 1 μM); 5% on Dopaminergic D1; 14% on Adrenergic α2A (compound concentration of 1 μM); 41% at Serotoninergic 5-HT2A; 4% on Dopaminergic D2L; 28% at Adrenergic α1D. Moreover, the inhibition at 1 µM was found to be 3% at Dopaminergic D4.2, 11% on Dopaminergic D3 and 1% on Histaminergic H3. The molecule also displayed a radio-labelled ligand displacement, Serotoninergic 5-HT1B with Serotoninergic 5-HT1B of 5%.
For the molecule `Cc1cc2c(s1)c1c(n2Cc2ccccc2)CCN(C)C1.Cl` [2.5(1)•HCl, 4-Benzyl-2,7-dimethyl-5,6,7,8-tetrahydro-4H-thieno[2′,3′:4,5]pyrrolo[3,2-c]pyridine hydrochloride], the radio-labelled ligand displacement, Adrenergic α1A in the assay with Adrenergic α1A came to 42%. Besides, the inhibition at 1 µM at Serotoninergic 5-HT2C was found to be 84%; at Dopaminergic D1, 5%; at Adrenergic α2A it was 34%; at Serotoninergic 5-HT2A, 93%; on Dopaminergic D2L, 8%; on Adrenergic α1D, 21%. Also, the inhibition at 1 µM at Dopaminergic D4.2 is -3%; on Dopaminergic D3, 16%; at Histaminergic H3 it was -4%. The molecule further displayed a radio-labelled ligand displacement, Serotoninergic 5-HT1B in the assay with Serotoninergic 5-HT1B of 6%.
Turning to `Cc1ccc(Cn2c3c(c4sc(Cl)cc42)C(C)N(C)C(C)C3)cn1` (centres unmarked) [2.5(4)•HCl, 4-(6-methylpyridin-3-ylmethyl)-6,7,8-trimethyl-2-chloro-5,6,7,8-tetrahydro-4H-thieno[2′,3′:4,5]pyrrolo[3,2-c]pyridine], the radio-labelled ligand displacement, Adrenergic α1A in the assay with Adrenergic α1A came out at 51%. The inhibition at 1 µM at Serotoninergic 5-HT2C (compound concentration of 1 μM) is 91%; on Dopaminergic D1 it was 3%; on Adrenergic α2A (compound concentration of 1 μM), 42%; on Serotoninergic 5-HT2A it was 91%; at Dopaminergic D2L it was 11%; on Adrenergic α1D, 29%. In addition, the values for the inhibition at 1 µM on Dopaminergic D4.2, on Dopaminergic D3 and on Histaminergic H3 were -1%, 15% and 9%, respectively. The radio-labelled ligand displacement, Serotoninergic 5-HT1B in the assay on Serotoninergic 5-HT1B was 28%.
On to `Cc1cc2c(s1)c1c(n2CCc2ccccc2)CCN(C)C1.Cl` [2.6(1)•HCl, 2,7-Dimethyl-4-(2-phenylethyl)-5,6,7,8-tetrahydro-4H-thieno[2′,3′:4,5]pyrrolo[3,2-c]pyridine hydrochloride], for which, in the assay with Adrenergic α1A, the radio-labelled ligand displacement, Adrenergic α1A came out at 83%. Moreover, the inhibition at 1 µM was determined as 89% on Serotoninergic 5-HT2C; 15% at Dopaminergic D1; 80% on Adrenergic α2A; 99% at Serotoninergic 5-HT2A; 76% at Dopaminergic D2L; 64% on Adrenergic α1D. For the same molecule, the inhibition at 1 µM on Dopaminergic D4.2 is 14%; at Dopaminergic D3 it was 62%; at Histaminergic H3 it was -15%. In the assay with Serotoninergic 5-HT1B, this molecule displayed a radio-labelled ligand displacement, Serotoninergic 5-HT1B of 18%.
In turn, `CC1Cc2c(c3sc(Cl)cc3n2C#Cc2cccc(F)c2)C(C)N1C` (centres unmarked) [2.10(3)•HCl, 6,7,8-trimethyl-4-(3-fluorophenyl)ethynyl-2-chloro-5,6,7,8-tetrahydro-4H-thieno[2′,3′:4,5]pyrrolo[3,2-c]pyridine] displayed a radio-labelled ligand displacement, Adrenergic α1A with Adrenergic α1A of 21%. Moreover, the inhibition at 1 µM stood at 31% at Serotoninergic 5-HT2C (compound concentration of 1 μM); 4% at Dopaminergic D1; 17% on Adrenergic α2A (compound concentration of 1 μM); 43% on Serotoninergic 5-HT2A; 20% on Dopaminergic D2L; 11% at Adrenergic α1D. The inhibition at 1 µM on Dopaminergic D4.2 was 4%; on Dopaminergic D3 it was 23%; on Histaminergic H3 it was -10%. In the assay with Serotoninergic 5-HT1B, this molecule displayed a radio-labelled ligand displacement, Serotoninergic 5-HT1B of 9%.
The molecule `Cc1ccc(CCCn2c3c(c4scc(Cl)c42)CN(C)CC3)cn1` [2.12(5)•HCl, 7-methyl-4-[3-(6-methylpyridin-3-yl)propyl]-3-chloro-5,6,7,8-tetrahydro-4H-thieno[2′,3′:4,5]pyrrolo[3,2-c]pyridine] yielded a radio-labelled ligand displacement, Adrenergic α1A in the assay with Adrenergic α1A of 98%. Besides, the inhibition at 1 µM at Serotoninergic 5-HT2C (compound concentration of 1 μM) was 99%; on Dopaminergic D1, 75%; on Adrenergic α2A (compound concentration of 1 μM), 101%; at Serotoninergic 5-HT2A, 99%; at Dopaminergic D2L, 87%; at Adrenergic α1D it was 93%. In addition, the results for the inhibition at 1 µM on Dopaminergic D4.2, on Dopaminergic D3 and at Histaminergic H3 were 69%, 71% and 12%, respectively. In the assay on Serotoninergic 5-HT1B, this molecule showed a radio-labelled ligand displacement, Serotoninergic 5-HT1B of 62%.
Turning to `Cc1cc2c3c(n(Cc4ccccc4)c2s1)CCN(C)C3.Cl` [3.5(1)•HCl, 8-Benzyl-2,5-dimethyl-5,6,7,8-tetrahydro-4H-thieno[3′,2′:4,5]pyrrolo[3,2-c]pyridine hydrochloride], the radio-labelled ligand displacement, Adrenergic α1A with Adrenergic α1A was determined as 77%. The inhibition at 1 µM on Serotoninergic 5-HT2C worked out at 97%; on Dopaminergic D1, 5%; at Adrenergic α2A, 64%; at Serotoninergic 5-HT2A, 100%; on Dopaminergic D2L it was 14%; at Adrenergic α1D, 44%. Also, the inhibition at 1 µM at Dopaminergic D4.2 was -5%; at Dopaminergic D3, 19%; at Histaminergic H3 it was 18%. The molecule further gave a radio-labelled ligand displacement, Serotoninergic 5-HT1B in the assay on Serotoninergic 5-HT1B of 10%.
